Experimental data from ChEMBL document CHEMBL5360558, “Molecular design, synthesis and anticancer activity of new thiopyrano[2,3-d]thiazoles based on 5-hydroxy-1,4-naphthoquinone (juglone)” (Eur J Med Chem, 2023).

Tests used:
[1] = GSH reactivity of compound at pH 7.4 phosphate buffer assessed as GSH-adduct formation at 1 mM incubated for 1 hr in presence of sodium borohydride by spectrophotometric analysis; type: physicochemical; conditions: pH 7.4, 1 h, 1000 µM
KB 3-1 = assay: Cytotoxicity against human KB 3-1 cells assessed as cell growth inhibition incubated for 72 hrs by MTT assay; type: functional, cell-based; conditions: KB 3-1, 72 h
HCT-116 = assay: Cytotoxicity against human HCT-116 cells assessed as cell growth inhibition incubated for 72 hrs by MTT assay; type: functional, cell-based; conditions: HCT-116, 72 h
[2] = GSH reactivity of compound at pH 7.4 phosphate buffer assessed as GSH-adduct formation at 1 mM incubated for 1 hr by spectrophotometric analysis; type: physicochemical; conditions: pH 7.4, 1 h, 1000 µM
[3] = Cytotoxicity against mouse J774.2 cells assessed as cell growth inhibition incubated for 72 hrs by MTT assay; type: toxicity, cell-based
MCF7 = assay: Cytotoxicity against human MCF7 cells assessed as cell growth inhibition incubated for 72 hrs by MTT assay; type: functional, cell-based; conditions: MCF7, 72 h
[4] = (§1) Cytotoxicity against human HaCaT cells assessed as cell growth inhibition incubated for 72 hrs by MTT assay; type: toxicity, cell-based; conditions: HaCaT cells
UO-31 = assay: Anticancer activity against human UO-31 cells assessed as cell growth at 10 uM incubated for 48 hrs by sulforhodamine B assay; type: functional; conditions: read-out: Activity
Salmon testes DNA = assay: Displacement of methyl green from salmon sperm DNA assessed as DNA intercalation at 10 uM incubated for 24 hrs by fluorescence plate reader method relative to control; type: nucleic-acid assay; conditions: Salmo salar
[5] = Cytotoxicity against human HCT116-p53-null cells assessed as cell growth inhibition incubated for 72 hrs by MTT assay; type: functional, cell-based
BT-549 = assay: Anticancer activity against human BT-549 cells assessed as cell growth at 10 uM incubated for 48 hrs by sulforhodamine B assay; type: functional; conditions: read-out: Activity
SR = assay: Anticancer activity against human SR cells assessed as cell growth at 10 uM incubated for 48 hrs by sulforhodamine B assay; type: functional; conditions: read-out: Activity
SF-539 = assay: Anticancer activity against human SF-539 cells assessed as cell growth at 10 uM incubated for 48 hrs by sulforhodamine B assay; type: functional; conditions: read-out: Activity
CAKI-1 = assay: Anticancer activity against human CAKI-1 cells assessed as cell growth at 10 uM incubated for 48 hrs by sulforhodamine B assay; type: functional; conditions: read-out: Activity
K562 = assay: Cytotoxicity against human K562 cells assessed as cell growth inhibition incubated for 72 hrs by MTT assay; type: functional, cell-based; conditions: K562, 72 h
[6] = Cytotoxicity against mouse NIH3T3 cells assessed as cell growth inhibition incubated for 72 hrs by MTT assay; type: toxicity, cell-based
HaCaT = assay: as §1; type: toxicity, cell-based; conditions: hacat, 72 h
M14 = assay: Anticancer activity against human M14 cells assessed as cell growth at 10 uM incubated for 48 hrs by sulforhodamine B assay; type: functional; conditions: read-out: Activity
RXF 393 = assay: Anticancer activity against human RXF 393 cells assessed as cell growth at 10 uM incubated for 48 hrs by sulforhodamine B assay; type: functional; conditions: read-out: Activity
SF-295 = assay: Anticancer activity against human SF-295 cells assessed as cell growth at 10 uM incubated for 48 hrs by sulforhodamine B assay; type: functional; conditions: read-out: Activity
SNB-19 = assay: Anticancer activity against human SNB-19 cells assessed as cell growth at 10 uM incubated for 48 hrs by sulforhodamine B assay; type: functional; conditions: read-out: Activity
NCI-H322M = assay: Anticancer activity against human NCI-H322M cells assessed as cell growth at 10 uM incubated for 48 hrs by sulforhodamine B assay; type: functional; conditions: read-out: Activity
HOP-62 = assay: Anticancer activity against human HOP-62 cells assessed as cell growth at 10 uM incubated for 48 hrs by sulforhodamine B assay; type: functional; conditions: read-out: Activity
Malme-3M = assay: Anticancer activity against human Malme-3M cells assessed as cell growth at 10 uM incubated for 48 hrs by sulforhodamine B assay; type: functional; conditions: read-out: Activity
HCC 2998 = assay: Anticancer activity against human HCC 2998 cells assessed as cell growth at 10 uM incubated for 48 hrs by sulforhodamine B assay; type: functional; conditions: read-out: Activity
MDA-MB-435 = assay: Anticancer activity against human MDA-MB-435 cells assessed as cell growth at 10 uM incubated for 48 hrs by sulforhodamine B assay; type: functional; conditions: read-out: Activity
OVCAR-5 = assay: Anticancer activity against human OVCAR-5 cells assessed as cell growth at 10 uM incubated for 48 hrs by sulforhodamine B assay; type: functional; conditions: read-out: Activity
SK-MEL-28 = assay: Anticancer activity against human SK-MEL-28 cells assessed as cell growth at 10 uM incubated for 48 hrs by sulforhodamine B assay; type: functional; conditions: read-out: Activity
HCT-15 = assay: Anticancer activity against human HCT-15 cells assessed as cell growth at 10 uM incubated for 48 hrs by sulforhodamine B assay; type: functional; conditions: read-out: Activity
SK-MEL-5 = assay: Anticancer activity against human SK-MEL-5 cells assessed as cell growth at 10 uM incubated for 48 hrs by sulforhodamine B assay; type: functional; conditions: read-out: Activity
UACC-257 = assay: Anticancer activity against human UACC-257 cells assessed as cell growth at 10 uM incubated for 48 hrs by sulforhodamine B assay; type: functional; conditions: read-out: Activity
A498 = assay: Anticancer activity against human A498 cells assessed as cell growth at 10 uM incubated for 48 hrs by sulforhodamine B assay; type: functional; conditions: read-out: Activity
OVCAR-8 = assay: Anticancer activity against human OVCAR-8 cells assessed as cell growth at 10 uM incubated for 48 hrs by sulforhodamine B assay; type: functional; conditions: read-out: Activity
SN12C = assay: Anticancer activity against human SN12C cells assessed as cell growth at 10 uM incubated for 48 hrs by sulforhodamine B assay; type: functional; conditions: read-out: Activity

Activity (Salmon testes DNA) [%] | Compound | IC50 (KB 3-1) [µM] | IC50 (HCT-116) [µM] | IC50 at 72 h [3] [µM] | IC50 (MCF7) [µM] | IC50 at 72 h [4] [µM] | IC50 [5] [µM] | IC50 (K562) [µM] | IC50 at 72 h [6] [µM] | further results
29.5 | O=C1C2=C(C(=O)c3c(O)cccc31)C(c1ccc(Cl)cc1)c1sc(=O)[nH]c1S2 (stereo unspecified) | 3.33 | 4.12 | 5.27 | 7.5 | > 50 | 3.1 | 19.2 | 46.6 | growth at 10 µM (UO-31): 39.8%; growth at 10 µM (BT-549): 39.5%; growth at 10 µM (SR): 38.6%; growth at 10 µM (SF-539): 35.1%; growth at 10 µM (CAKI-1): 36.7%
11.8 | O=C1C2=C(C(=O)c3c(O)cccc31)C(/C=C/c1ccccc1)c1sc(=O)[nH]c1S2 (stereo unspecified) | 46.4 | 35.6 | 7.44 | 7.41 |  | 43.7 | 28.4 |  | 
29.5 | COc1ccc(C2C3=C(Sc4[nH]c(=O)sc42)C(=O)c2cccc(O)c2C3=O)cc1 (stereo unspecified) | 0.87 | 3.19 | 2.95 | 6.1 | 40.8 | 3.26 | 5.66 | 6.78 | 
66.4 | O=C1C2=C(C(=O)c3c(O)cccc31)C(c1cccs1)c1sc(=O)[nH]c1S2 (stereo unspecified) | 4.53 | 5.13 | 6.81 | 24.1 |  | 5.36 | 21.5 | 39.1 | growth at 10 µM (M14): -96.7%; growth at 10 µM (RXF 393): -97.4%; growth at 10 µM (SF-295): -93.5%; growth at 10 µM (SNB-19): -99.5%; growth at 10 µM (NCI-H322M): -96.8%; growth at 10 µM (HOP-62): -94.3%; growth at 10 µM (Malme-3M): -99.4%; growth at 10 µM (HCC 2998): -96.8%; growth at 10 µM (MDA-MB-435): -90.2%; growth at 10 µM (UO-31): -92.9%; growth at 10 µM (OVCAR-5): -93%; growth at 10 µM (SK-MEL-28): -97.2%; growth at 10 µM (HCT-15): -91.4%; growth at 10 µM (BT-549): -99.9%; growth at 10 µM (SK-MEL-5): -96.9%; growth at 10 µM (UACC-257): -93.1%; growth at 10 µM (A498): -98.7%; growth at 10 µM (SF-539): -99.5%; growth at 10 µM (OVCAR-8): -94.6%; growth at 10 µM (SN12C): -92.8%
29.5 | O=C1C2=C(C(=O)c3c(O)cccc31)C(c1ccc(Br)cc1)c1sc(=O)[nH]c1S2 (stereo unspecified) | 2.74 | 4.7 | 2.03 | 31.2 | > 50 | 3.82 | 6.31 | 30.4 | 
29.5 | O=C1C2=C(C(=O)c3c(O)cccc31)C(c1cc(Cl)ccc1O)c1sc(=O)[nH]c1S2 (stereo unspecified) | 3.64 | 0.75 | 5.25 | 9.34 | > 50 | 3.86 | 11.8 | 37 | 

Further lines, the compound ahead of its results:

Compound | Activity (Salmon testes DNA) [%] | IC50 (KB 3-1) [µM] | IC50 (HCT-116) [µM] | IC50 at 72 h [3] [µM] | IC50 (MCF7) [µM] | IC50 at 72 h [4] [µM] | IC50 [5] [µM] | IC50 (K562) [µM] | IC50 at 72 h [6] [µM] | further results
O=C1C=CC(=O)c2c(O)cccc21 [JUGLONE] |  | 26.4 | 31.6 | 13.4 |  |  |  |  |  | Activity [1]: Active; Activity [2]: Active
CN(C)c1ccc(C2C3=C(Sc4[nH]c(=O)sc42)C(=O)c2cccc(O)c2C3=O)cc1 (stereo unspecified) | 55.4 | 7.21 | 6.15 | 26.9 | > 50 | > 50 | 8.83 | 22.9 | > 50 | 
O=C1C2=C(C(=O)c3ccccc31)C(c1ccco1)c1sc(=O)[nH]c1S2 (stereo unspecified) | 11.8 | 5.54 | 5.44 | 6.77 | 29 |  | 6.28 | 30.9 | 38.9 | Activity (HaCaT): Non-Toxic
O=C1C2=C(C(=O)c3c(O)cccc31)C(CCc1ccccc1)c1sc(=O)[nH]c1S2 (stereo unspecified) | 11.8 | > 50 | > 50 | > 50 | > 50 |  | > 50 | > 50 |  | 
CC1(C)C2=C(Sc3[nH]c(=O)sc31)C(=O)c1cccc(O)c1C2=O | 42.5 | 23.4 | 12.9 | 26.4 | 9.48 | > 50 | 36.2 | 26.8 | > 50 | 
O=C1C2=C(C(=O)c3c(O)cccc31)C(/C=C/c1ccccc1[N+](=O)[O-])c1sc(=O)[nH]c1S2 (stereo unspecified) | 53.2 | 6.94 | 0.94 | 0.83 | 0.95 |  | 2.16 | 15.7 |  | 
O=C1NC(=S)/C(=C/c2ccco2)S1 |  |  |  |  |  |  |  |  |  | Activity [1]: Active; Activity [2]: Active
C/C(=C\c1ccccc1)C1C2=C(Sc3[nH]c(=O)sc31)C(=O)c1cccc(O)c1C2=O (stereo unspecified) | 29.5 | 47.5 | 40.6 | 30.8 | > 50 |  | 41.7 | 33 |  | 
